Measurements as given in US7217735B1, “Methods and compositions for enhancing delivery of therapeutic agents to tissues” (priority 1999, dated 2007).
Where two headings read alike, the source gives them in different places. Marks after values point to notes of the source that are not given here.

Tests used:
MAT-LyLu prostate tumor = test: Effect of pretreatment on paclitaxel accumulation in tumors, in vivo infusion; set-up: species or system Copenhagen rat
Text: (§1) Experiments were initiated when the tumor was between 0.3 to 0.5 g in size.
(§2) The jugular vein and carotid artery of tumor-bearing rats were catheterized, under light ether anesthesia, with polyethylene tubing (PE-50, Becton Dickinson Co., Sparks, Md.) for drug administration and for blood sampling, respectively. Each catheter was exteriorized to the dorsal side of the neck and attached to a second polyethylene tubing (PE-50), respectively. The catheters and tubings were covered with a metal coil tubing. […] Blood samples (0.12 or 0.22 ml) were obtained at predetermined times. Plasma fraction was obtained by centrifugation at 2,000 g for 3 min, and stored at −70° C. for HPLC analysis. At the end of the experiment, tumors were harvested. One quarter of a tumor was fixed in 10% neutralized formalin solution and processed for tissue morphology evaluation. Tumor cell density and the fraction of apoptotic cells were determined by counting the number of tumor cells and apoptotic cells in nonnecrotic regions at 400× magnification (5 microscopic fields/tumor). The remainder of the tumor was stored at […] until HPLC analysis for drug concentration.
(§3) Preweighed tumors were homogenized, mixed with the internal standard, 100:1 cephalomanine (10:g/ml in methanol). The HPLC stationary phase consisted of a cleaning column (NovaPak C8, 75×3.9 mm ID, 4:m particle size, Waters Associates, Milford, Mass.) and an analytical column (Bakerbond Octadecyl, 250×4.6 mm ID, 5:m particle size, J. T. Baker, Phillipsburg, N.J.). Samples were injected onto the clean-up column and eluted with the clean-up mobile phase (37.5% acetonitrile in Water) at 1 ml/min.

[1] = as above; set-up: species or system Copenhagen rat; conditions: male, Copenhagen, rat; for Kp: tumor and plasma, intravenous, read-out: Tumor-to-plasma conc. ratio at end of Tx
Text: as §1, §2, §3

[2] = tested on: patient and xenograft tumors; test: Paclitaxel efflux from tumor histocultures, all three tumor types
Protocol: (§4) The specimens were washed with culture medium for three times and dissected into about 1 mm^3 fragments under sterile conditions. The culture medium consisted of a 1:1 mixture of MEM/DMEM for patient tumors, MEM for FaDu xenografts, and RPMI1640 for PC3 xenografts, supplemented with 9% heat-inactivated FBS, 2 mM glutamine, 0.1 mM non-essential amino acids (only for MEM/DMEM), 90:g/ml gentamicin and 90:g/ml cefotaxime sodium. Five histoculture fragments were placed on a 1 cm^2 piece of presoaked collagen gel and incubated with 4 ml culture medium in 6-well plates. After 2 to 4 days, tumor histocultures were used to study the kinetics of drug penetration.
(§5) At predetermined times, 100 μl of medium was taken from each well and the histocultures were removed from the plates. The histocultures were blot-dried on a filter paper and their weights were measured. One hundred 1 of medium or tumor samples were mixed with 0.5 ml of Solvable tissue/gel solubilizer, incubated at 50° C. in an oven overnight, and analyzed for total radioactivity using liquid scintillation counting. […] Drug concentration in tissue was calculated as (drug amount) divided by (tissue weight) and was expressed in molar terms.
The study design of experiments using patient tumors was dictated by the size of the specimens. […]

FaDu tumor histocultures = conditions: for time at which even distribution in tumor was attained: with pretreatment
Text: The histocultures were transferred to a collagen gel presoaked with drug-containing medium for at least 8 hr. The latter was to ascertain that the drug concentration in the medium inside the collagen gel was at equilibrium with the surrounding medium, in order to eliminate the delay in drug transport from medium through the collage gel. Drug treatment was terminated by transferring histocultures to a collagen gel presoaked with drug-free medium. Histocultures were transferred using a pair of hooked forceps and care was exercised to avoid squeezing or pinching.
The total drug concentration in tumor histocultures was measured as described in Example 1. […] Thirty to 35 tumor histocultures were used for each time point.
Two studies were performed.
One schedule used 50% of the total C×T to induce apoptosis, whereas the other schedule used continuous treatment. […] The fraction of apoptotic cells and cell density were determined by counting the number of total and apoptotic tumor cells in 400× microscopic fields (3 fields per tumor).

[3] = tested on: patient head and neck tumors; test: Paclitaxel uptake in tumor histocultures
Protocol: as §4
This study was performed using head and neck tumors from human patients and the human pharynx FaDu xenograft tumors maintained in athymic mice.
as §5
The study design of experiments using patient tumors was dictated by the size of the specimens. On some occasions, specimens from an individual patient were only sufficient to study drug uptake and efflux at one or more but not all drug concentrations. A total of 7 head and neck tumors and 3 ovarian tumors were used. For the FaDu xenograft tumor, specimens from individual animals were sufficiently large that each tumor was used for studying uptake and efflux at all four drug concentrations.
The statistical significance of the differences among patient (head and neck and ovarian, n=6) and FaDu (n=3) tumors, at equal initial medium concentrations, were analyzed by the two-tailed unpaired Student's t-test.

[4] = Group 1: 5 mg/kg/hr x 1 hr, then 0.83 x 6 hr at 24 hr, total 10 mg/kg
[5] = Group 2A: 5 mg/kg/hr x 1 hr at 0 hr, total 5 mg/kg, at 1 hr
[6] = Group 2B: 5 mg/kg/hr x 1 hr at 0 hr, total 5 mg/kg, at 24 hr
[7] = Group 3: 0.83 mg/kg/hr x 6 hr at 0 hr, total 5 mg/kg
[8] = Group 4: 5 mg/kg/hr x 1 hr at 0 hr + 0.83 x 6 hr at 1.2 hr, total 10 mg/kg
[9] = Group 5: 0.83 mg/kg/hr x 12 hr, total 10 mg/kg

Structure (SMILES): CC(=O)O[C@H]1C(=O)[C@@]2(C)[C@H]([C@H](OC(=O)c3ccccc3)[C@]3(O)C[C@H](OC(=O)[C@H](O)[C@@H](NC(=O)c4ccccc4)c4ccccc4)C(C)=C1C3(C)C)[C@]1(OC(C)=O)CO[C@@H]1C[C@@H]2O [paclitaxel]
- Apoptotic fraction (MAT-LyLu prostate tumor; [4]): 14.5 ± 2.5^b %
- Cell density (MAT-LyLu prostate tumor; [4]): 83 ± 4.69^b
- Plasma conc. at end of Tx (MAT-LyLu prostate tumor; [4]): 1.42 ± 0.11 :g/ml
- Tumor conc. at specified time (MAT-LyLu prostate tumor; Group 1: 5 mg/kg/hr x 1 hr, then 0.83 x 6 hr at 24 hr, total 10 mg/kg, at 30 hr): 3.94 ± 0.35 :g/g
- higher tumor concentration in Group 1 than sum of Group 2 at 24 hr and Group 3 at 6 hr (MAT-LyLu prostate tumor; Group 1 at 30 hr): 50%
- Plasma conc. at end of Tx (MAT-LyLu prostate tumor; Group 2A: 5 mg/kg/hr x 1 hr at 0 hr, total 5 mg/kg): 6.01 ± 0.64 :g/ml
- Apoptotic fraction (MAT-LyLu prostate tumor; [5]): 1.5 ± 0.9%
- Cell density (MAT-LyLu prostate tumor; [5]): 120 ± 4.35
- Tumor conc. at specified time (MAT-LyLu prostate tumor; [5]): 2.76 ± 0.57 :g/g
- Apoptotic fraction (MAT-LyLu prostate tumor; [6]): 11.2 ± 2.3^c %
- Cell density (MAT-LyLu prostate tumor; [6]): 85 ± 4.52
- Tumor conc. at specified time (MAT-LyLu prostate tumor; [6]): <0.35 at :g/g
- Apoptotic fraction (MAT-LyLu prostate tumor; [7]): 3.5 ± 1.5%
- Cell density (MAT-LyLu prostate tumor; [7]): 112 ± 6.08
- Plasma conc. at end of Tx (MAT-LyLu prostate tumor; [7]): 1.31 ± 0.12 :g/ml
- Tumor conc. at specified time (MAT-LyLu prostate tumor; Group 3: 0.83 mg/kg/hr x 6 hr at 0 hr, total 5 mg/kg, at 6 hr): 2.26 ± 0.13 :g/g
- Apoptotic fraction (MAT-LyLu prostate tumor; [8]): 5.8 ± 2.2%
- Cell density (MAT-LyLu prostate tumor; [8]): 108 ± 5.78
- Plasma conc. at end of Tx (MAT-LyLu prostate tumor; [8]): 2.98 ± 0.60 :g/ml
- Tumor conc. at specified time (MAT-LyLu prostate tumor; Group 4: 5 mg/kg/hr x 1 hr at 0 hr + 0.83 x 6 hr at 1.2 hr, total 10 mg/kg, at 7.2 hr): 3.24 ± 0.31 :g/g
- Apoptotic fraction (MAT-LyLu prostate tumor; [9]): 6.5 ± 1.6%
- Cell density (MAT-LyLu prostate tumor; [9]): 115 ± 5.18
- Plasma conc. at end of Tx (MAT-LyLu prostate tumor; [9]): 1.50 ± 0.06 :g/ml
- Tumor conc. at specified time (MAT-LyLu prostate tumor; Group 5: 0.83 mg/kg/hr x 12 hr, total 10 mg/kg, at 12 hr): 2.95 ± 0.34 :g/g
- higher cell (density) in Group 5 compared to Group 1 (MAT-LyLu prostate tumor; end of treatment): 25%
- higher cell density in Group 4 compared to Group 1 (MAT-LyLu prostate tumor; end of treatment): 30%
- lower apoptosis in Group 4 compared to Group 1 (MAT-LyLu prostate tumor; end of treatment): 60%
- lower apoptosis in Group 5 compared to Group 1 (MAT-LyLu prostate tumor; end of treatment): 35%
- lower drug concentration in Group 4 compared to Group 1 (MAT-LyLu prostate tumor; end of treatment): 18%
- lower drug concentration in Group 5 at 12 hr than Group 1 at 30 hr (MAT-LyLu prostate tumor; rat, in vivo): 25%
- difference between plasma concentrations at end of 6 and 12 hr infusions (MAT-LyLu prostate tumor; rats): 13%
- half-life ([1]; plasma, rats, intravenous infusion, read-out: major half-life (converted)): 1.1 h
- Kp ([1]; 5 mg/kg, Group 2A: 5 mg/kg/hr x 1 hr at 0 hr, total 5 mg/kg): 0.46 ± 0.09
- Kp ([1]; 5 mg/kg, Group 3: 0.83 mg/kg/hr x 6 hr at 0 hr, total 5 mg/kg): 1.73 ± 0.18
- Kp ([1]; 10 mg/kg, Group 1: 5 mg/kg/hr x 1 hr, then 0.83 x 6 hr at 24 hr, total 10 mg/kg): 2.8 ± 0.28
- Kp ([1]; 10 mg/kg, Group 4: 5 mg/kg/hr x 1 hr at 0 hr + 0.83 x 6 hr at 1.2 hr, total 10 mg/kg): 1.2 ± 0.3
- Kp ([1]; 10 mg/kg, Group 5: 0.83 mg/kg/hr x 12 hr, total 10 mg/kg): 1.98 ± 0.23
- time at which drug concentration declined to pseudo steady state level [2]: 48 h
- time at which even distribution in tumor was attained (FaDu tumor histocultures; 10 nM): 72 h
- Paclitaxel in tumor (FaDu tumor histocultures; 50 nM x 24 hr, 24 hr after initiation of treatment): 3.11 ± 0.31 :M
- Paclitaxel in tumor (FaDu tumor histocultures; 50 nM x 24 hr, 36 hr after initiation of treatment): 2.01 ± 0.32 :M
- time at which even distribution in tumor was attained (FaDu tumor histocultures; 50 nM): 24 h
- time of even distribution throughout the tumor (FaDu tumor histocultures; 50 nM, without pretreatment): ≤ 72 h
- Paclitaxel in tumor (FaDu tumor histocultures; 600 nM x 1 hr, 23 hr later 50 nM x 12 hr, 24 hr after initiation of treatment): 2.68 ± 0.31 :M
- Paclitaxel in tumor (FaDu tumor histocultures; 600 nM x 1 hr, 23 hr later 50 nM x 12 hr, 36 hr after initiation of treatment): 4.33 ± 0.29 :M
- paclitaxel penetration (FaDu tumor histocultures; control group, 50 nM continuously for 24 hr, during the next 12 hr): less than 20 cell layers
- higher drug accumulation in pretreatment group vs control group (FaDu tumor histocultures; end of drug treatment (36 hr vs 24 hr), equal CxT 1,200 nM·hr): 40%
- time of even drug distribution throughout histocultures (FaDu tumor histocultures; pretreatment group, 600 nM 1 hr, 23 hr drug-free, 50 nM 12 hr): 36 h
- Mass balance ([3]; initial Cmedium 12 nM): 91.2 ± 3.5%
- Steady state Cmedium ([3]; initial Cmedium 12 nM): 10.9 ± 1.0 nM
- Mass balance ([3]; initial Cmedium 120 nM): 83.8 ± 7.6%
- Steady state Cmedium ([3]; initial Cmedium 120 nM): 83.0 ± 0.7 nM
- Steady state Ctumor ([3]; initial Cmedium 120 nM): 5.77 ± 1.52 :M
- Mass balance ([3]; initial Cmedium 1,200 nM): 87.5 ± 6.5%
- Steady state Cmedium ([3]; initial Cmedium 1,200 nM): 925 ± 25 nM
- Steady state Ctumor ([3]; initial Cmedium 1,200 nM): 22.0 ± 6.2 :M
- Mass balance ([3]; initial Cmedium 12,000 nM): 91.5 ± 3.5%
- Steady state Cmedium ([3]; initial Cmedium 12,000 nM): 9,870 ± 59 nM
- Steady state Ctumor ([3]; initial Cmedium 12,000 nM): 341 ± 125 :M
